The values that follow come from patent publication US8461328B2, “Tricyclic heterocyclic compounds, compositions and methods of use thereof” (Genentech, Inc., priority 2010, dated 2013).

Structures are written as SMILES.

Type in all cases: biochemical
One assay deals with T1, JAK1 (Homo sapiens, UniProt P23458).
T1 construct: made in house; host or cells: SF9 insect cells (baculovirus)
Briefly: JAK1 inhibition (Table 4). Conditions: read-out: JAK1 Ki.

Another assay addresses T2, JAK2 (Homo sapiens, UniProt O60674).
T2 construct: made in house; host or cells: SF9 insect cells (baculovirus)
Briefly: JAK2 inhibition (Table 4). Conditions: read-out: JAK2 Ki.

A further assay deals with T3, JAK3 (Homo sapiens, UniProt P52333).
T3 construct: made in house; host or cells: SF9 insect cells (baculovirus)
In words: JAK3 inhibition (Table 4). The settings on record: read-out: JAK3 Ki.

T3 sequence (P52333 783-1124): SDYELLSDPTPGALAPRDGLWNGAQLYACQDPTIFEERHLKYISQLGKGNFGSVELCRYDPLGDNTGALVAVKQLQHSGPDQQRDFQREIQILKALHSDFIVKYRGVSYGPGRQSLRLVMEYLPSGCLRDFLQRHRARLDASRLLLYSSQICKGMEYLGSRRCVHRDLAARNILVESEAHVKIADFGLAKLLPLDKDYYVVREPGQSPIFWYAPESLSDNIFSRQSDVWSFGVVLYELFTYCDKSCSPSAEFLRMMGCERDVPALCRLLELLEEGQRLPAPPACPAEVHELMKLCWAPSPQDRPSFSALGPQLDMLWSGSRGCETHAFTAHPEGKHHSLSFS
T2 sequence (O60674 812-1132): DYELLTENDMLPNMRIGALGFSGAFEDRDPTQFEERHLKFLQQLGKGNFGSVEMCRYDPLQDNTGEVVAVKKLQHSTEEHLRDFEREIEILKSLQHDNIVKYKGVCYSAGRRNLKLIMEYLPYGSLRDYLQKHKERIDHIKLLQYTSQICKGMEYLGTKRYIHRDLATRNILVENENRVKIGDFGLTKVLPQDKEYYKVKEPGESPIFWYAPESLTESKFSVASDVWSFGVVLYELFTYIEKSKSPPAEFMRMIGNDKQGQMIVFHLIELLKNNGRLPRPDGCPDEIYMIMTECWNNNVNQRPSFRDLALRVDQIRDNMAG
T1 sequence (P23458 852-1154): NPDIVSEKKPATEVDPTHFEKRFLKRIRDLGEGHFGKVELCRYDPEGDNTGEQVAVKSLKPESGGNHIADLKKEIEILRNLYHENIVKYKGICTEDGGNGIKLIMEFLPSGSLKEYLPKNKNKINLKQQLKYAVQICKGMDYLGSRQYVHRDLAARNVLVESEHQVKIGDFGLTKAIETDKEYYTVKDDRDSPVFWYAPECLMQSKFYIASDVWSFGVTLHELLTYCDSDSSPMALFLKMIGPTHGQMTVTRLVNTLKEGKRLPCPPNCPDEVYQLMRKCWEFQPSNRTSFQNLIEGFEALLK

Broadly, the Ki is the dissociation constant of the complex between target and ligand, obtained from inhibition or displacement. For `CN1CCC(C(=O)N2CCC(n3cnc4cnc5[nH]ccc5c43)CC2)C1` (racemic) [Example 452, (1-Methyl-pyrrolidin-3-yl)-[4-(6H-1,3,5,6-tetraaza-as-indacen-1-yl)-piperidin-1-yl]-methanone], the Ki on JAK1 was 316 nM; at JAK2, 1170 nM.

In the case of `Cc1nc2cnc3[nH]ccc3c2n1C(C)C1CCCO1` (single isomer, unassigned) [Example 427, 2-Methyl-1-[1-(tetrahydro-furan-2-yl)-ethyl]-1,6-dihydro-1,3,5,6-tetraaza-as-indacene], the Ki at JAK1 was 201 nM; on JAK2, 167 nM.

In the case of `CN1CCCC(C(=O)N2CCC(n3cnc4cnc5[nH]ccc5c43)CC2)C1` (single isomer, unassigned) [Example 453, (1-Methyl-piperidin-3-yl)-[4-(6H-1,3,5,6-tetraaza-as-indacen-1-yl)-piperidin-1-yl]-methanone], the Ki at JAK1 stood at 263 nM; on JAK2, 1410 nM.

Consider `CN1CCCC(C(=O)N2CCC(n3cnc4cnc5[nH]ccc5c43)CC2)C1` (single isomer, unassigned) [Example 454, (1-Methyl-piperidin-3-yl)-[4-(6H-1,3,5,6-tetraaza-as-indacen-1-yl)-piperidin-1-yl]-methanone], for which the inhibition constant Ki on JAK1 is 547 nM; on JAK2, 1310 nM.

For `COCC(=O)NC1CCCC(n2cnc3cnc4[nH]ccc4c32)C1` (single isomer, unassigned) [Example 483, 2-Methoxy-N-[3-(6H-1,3,5,6-tetraaza-as-indacen-1-yl)-cyclohexyl]-acetamide], the Ki is 613 nM at JAK3, 472 nM at JAK1 and 832 nM on JAK2.

In the case of `c1cc2c(ncc3nc(C4CCCN4)n(C4CCCOC4)c32)[nH]1` (single isomer, unassigned) [Example 665], the inhibition constant Ki was 1780 nM on JAK3, 432 nM on JAK1 and 1800 nM on JAK2.

`c1cc2c(ncc3nc(C4CCCN4)n(C4CCCOC4)c32)[nH]1` (single isomer, unassigned) [Example 666]: the values for the inhibition constant Ki at JAK3 and on JAK1 were 4010 nM and 1690 nM, respectively.

For the molecule `c1cc(N2CCC[C@@H](n3cnc4cnc5[nH]ccc5c43)C2)ccn1` [Example 13, (R)-1-(3,4,5,6-Tetrahydro-2H-[1,4]bipyridinyl-3-yl)-1,6-dihydro-1,2,3,5,6-tetraaza-as-indacene], the Ki was 1840 nM at JAK3, 179 nM at JAK1 and 898 nM on JAK2.

As to `CC(=O)N1CCC(n2c(C(F)(F)CN)nc3cnc4[nH]ccc4c32)CC1` [Example 139, 1-{4-[2-(2-Amino-1,1-difluoro-ethyl)-6H-1,2,3,5,6-tetraaza-as-indacen-1-yl]-piperidin-1-yl}-ethanone], the Ki on JAK3 came to 1450 nM; on JAK1, 339 nM; on JAK2, 930 nM.

As for `c1cncc(-c2nc3cnc4[nH]ccc4c3n2C2CCNCC2)c1` [Example 153, 1-Piperidin-4-yl-2-pyridin-3-yl-1,6-dihydro-1,2,3,5,6-tetraaza-as-indacene], the figures for the Ki on JAK3, on JAK1 and at JAK2 were 784 nM, 181 nM and 587 nM, respectively.

As to `c1ccc(CN2CCC(n3c(C4CCOCC4)nc4cnc5[nH]ccc5c43)CC2)cc1` [Example 154, 1-(1-Benzyl-piperidin-4-yl)-2-(tetrahydro-pyran-4-yl)-1,6-dihydro-1,2,3,5,6-tetraaza-as-indacene], the Ki came out at 9.24 nM at JAK3, 15.3 nM on JAK1 and 28.4 nM at JAK2.

With `c1ccc(CN2CCC(n3c(CN4CCOCC4)nc4cnc5[nH]ccc5c43)CC2)cc1` [Example 155, 1-(1-Benzyl-piperidin-4-yl)-2-morpholin-4-ylmethyl-1,6-dihydro-1,2,3,5,6-tetraaza-as-indacene], the results for the Ki at JAK3, at JAK1 and at JAK2 were 304 nM, 120 nM and 452 nM, respectively.

With `CC(C)(C#N)c1nc2cnc3[nH]ccc3c2n1C1CCN(Cc2cnccn2)CC1` [Example 164, 2-Methyl-2-[1-(1-pyrazin-2-ylmethyl-piperidin-4-yl)-1,6-dihydro-1,2,3,5,6-tetraaza-as-indacen-2-yl]-propionitrile], the inhibition constant Ki at JAK3 is 57.1 nM; on JAK1, 52.8 nM; at JAK2, 129 nM.

Take `CC(C)(O)c1nc2cnc3[nH]ccc3c2n1C1CCN(Cc2ccccc2)CC1` [Example 171, 2-[1-(1-Benzyl-piperidin-4-yl)-1,6-dihydro-1,2,3,5,6-tetraaza-as-indacen-2-yl]-propan-2-ol]: the results for the Ki at JAK3, at JAK1 and on JAK2 were 103 nM, 49.9 nM and 241 nM, respectively.

Consider `CC(C)(O)Cc1nc2cnc3[nH]ccc3c2n1C1CCNCC1` [Example 173, 2-Methyl-1-(1-piperidin-4-yl-1,6-dihydro-1,2,3,5,6-tetraaza-as-indacen-2-yl)-propan-2-ol], for which the Ki at JAK3 turned out to be 3900 nM; at JAK1 it was 215 nM.

Consider `O=C(c1nc2cnc3[nH]ccc3c2n1C1CCN(Cc2ccccc2)CC1)N1CCOCC1` [Example 237, [1-(1-Benzyl-piperidin-4-yl)-1,6-dihydro-1,3,5,6-tetraaza-as-indacen-2-yl]-morpholin-4-yl-methanone], for which the inhibition constant Ki was 47 nM on JAK3, 106 nM on JAK1 and 494 nM at JAK2.

Consider `CC(C)(C)OC(=O)N1CC(F)(F)C[C@H]1C(=O)N1CCC(n2cnc3cnc4[nH]ccc4c32)CC1` [Example 243, (S)-4,4-Difluoro-2-[4-(6H-1,3,5,6-tetraaza-as-indacen-1-yl)-piperidine-1-carbonyl]-pyrrolidine-1 carboxylic acid tert-butyl ester], for which the Ki stood at 357 nM at JAK1 and 446 nM at JAK2.

For `CC(C)(O)c1nc2cnc3[nH]ccc3c2n1C1CCNCC1` [Example 334, 2-(1-Piperidin-4-yl-1,6-dihydro-1,3,5,6-tetraaza-as-indacen-2-yl)-propan-2-ol], the results for the Ki at JAK3, at JAK1 and on JAK2 were 2550 nM, 137 nM and 2240 nM, respectively.

`CC(C)(C)OC(=O)N1CCCC[C@H]1CN[C@H]1CC[C@H](n2cnc3cnc4[nH]ccc4c32)CC1` [Example 564, trans (S)-2-{[4-(6H-1,3,5,6-Tetraaza-as-indacen-1-yl)-cyclohexylamino]-methyl}-piperidine-1-carboxylic acid tert-butyl ester]: the inhibition constant Ki at JAK3 was 2650 nM; on JAK1, 112 nM; on JAK2, 710 nM.

Turning to `CC(C)(C)OC(=O)N1CCC(n2c(NCCO)nc3cnc4[nH]ccc4c32)CC1` [Example 654, 4-[(2-Hydroxy-ethylamino)-6H-1,2,3,5,6-tetraaza-as-indacen-1-yl]-piperidine-1-carboxylic acid tert-butyl ester], the Ki on JAK3 is 2090 nM; on JAK1, 453 nM; at JAK2 it was 763 nM.

As for `COCCNc1nc2cnc3[nH]ccc3c2n1C1CCNCC1` [Example 657, (2-Methoxy-ethyl)-(1-piperidin-4-yl-1,6-dihydro-1,2,3,5,6-tetraaza-as-indacen-2-yl)-amine], the inhibition constant (Ki) on JAK3 was 668 nM; on JAK1, 29.1 nM; at JAK2 it was 1280 nM.

On to `C[C@H](O)c1nc2cnc3[nH]ccc3c2n1[C@@H]1CCCN(C(=O)Cn2ccnc2)C1` [Example 781, 1-{(R)-3-[2-((S)-1-Hydroxy-ethyl)-6H-1,3,5,6-tetraaza-as-indacen-1-yl]-piperidin-1-yl}-2-imidazol-1-yl-ethanone], for which the inhibition constant (Ki) was determined as 4000 nM on JAK3, 380 nM at JAK1 and 1490 nM on JAK2.

`COCCC(=O)N1CCC[C@@H](n2c([C@@H](C)O)nc3cnc4[nH]ccc4c32)C1` [Example 784, 1-{(R)-3-[2-((R)-1-Hydroxy-ethyl)-6H-1,3,5,6-tetraaza-as-indacen-1-yl]-piperidin-1-yl}-3-methoxy-propan-1-one]: on JAK1, the inhibition constant (Ki) was 224 nM.

For `CC(O)c1nc2cnc3[nH]ccc3c2n1C1CCCN(C(=O)C2CC(=O)N(C)C2)C1` (centres unmarked) [Example 787, 4-{3-[2-(1-Hydroxy-ethyl)-6H-1,3,5,6-tetraaza-as-indacen-1-yl]-piperidine-1-carbonyl}-1-methyl-pyrrolidin-2-one], the Ki on JAK3 is 2490 nM; on JAK1 it was 464 nM.

Regarding `CC(O)c1nc2cnc3[nH]ccc3c2n1C1CCCN(C(=O)CC2CCCO2)C1` (centres unmarked) [Example 789, 1-{3-[2-(1-Hydroxy-ethyl)-6H-1,3,5,6-tetraaza-as-indacen-1-yl]-piperidin-1-yl}-2-(tetrahydro-furan-2-yl)-ethanone], on JAK1, the Ki is 438 nM.

For `C[C@@H](O)c1nc2cnc3[nH]ccc3c2n1[C@@H]1CCCN(C(=O)CCn2ccnc2)C1` [Example 797, 1-{(R)-3-[2-((R)-1-Hydroxy-ethyl)-6H-1,3,5,6-tetraaza-as-indacen-1-yl]-piperidin-1-yl}-3-imidazol-1-yl-propan-1-one], the inhibitory constant (Ki) on JAK3 turned out to be 1630 nM; at JAK1 it was 159 nM; at JAK2, 1750 nM.

As for `COC1CCC(C(=O)N2CCCC(n3c(C(C)O)nc4cnc5[nH]ccc5c43)C2)CC1` (centres unmarked) [Example 799, {3-[2-(1-Hydroxy-ethyl)-6H-1,3,5,6-tetraaza-as-indacen-1-yl]-piperidin-1-yl}-(4-methoxy-cyclohexyl)-methanone], at JAK1, the Ki was 456 nM.

`CC(C)N1CCCC[C@H]1C(=O)N1CCC(n2cnc3cnc4[nH]ccc4c32)CC1` [Example 950, ((S)-1-Isopropyl-piperidin-2-yl)-[4-(6H-1,3,5,6-tetraaza-as-indacen-1-yl)-piperidin-1-yl]-methanone]: the inhibition constant Ki amounted to 255 nM on JAK1 and 1420 nM on JAK2.

On to `COCCN1CCCC[C@H]1C(=O)N1CCC(n2cnc3cnc4[nH]ccc4c32)CC1` [Example 952, [(S)-1-(2-Methoxy-ethyl)-piperidin-2-yl]-[4-(6H-1,3,5,6-tetraaza-as-indacen-1-yl)-piperidin-1-yl]-methanone], for which the figures for the inhibitory constant (Ki) at JAK1 and on JAK2 were 142 nM and 628 nM, respectively.
